Experimental data as given in article PMC7614683, “A small molecule PI3Kα activator for cardioprotection and neuroregeneration” (Nature, 2023).
Like-named read-outs stand apart in the source and are kept apart here.

Legend:
Assay in all cases: SelectScreen Z-LYTE kinase activity assay (SI Table 6)
Format in all cases: biochemical
[1] = molecular target: protein kinases of the Z-LYTE panel (Homo sapiens, UniProt P17612)
How it was run: (§1)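 A counterscreen of 133 protein and 7 lipid kinases was run with one compound concentration, 1 μM 1938, in SelectScreen Adapta, Lantha or Z-LYTE assays.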

[2] = molecular target: protein kinases of the Z-LYTE panel (Homo sapiens, UniProt P31749)
How it was run: as §1

[3] = molecular target: T1, protein kinases of the Z-LYTE panel (Homo sapiens, UniProt Q9NWZ3)
T1 sequence (Q9NWZ3 1-460): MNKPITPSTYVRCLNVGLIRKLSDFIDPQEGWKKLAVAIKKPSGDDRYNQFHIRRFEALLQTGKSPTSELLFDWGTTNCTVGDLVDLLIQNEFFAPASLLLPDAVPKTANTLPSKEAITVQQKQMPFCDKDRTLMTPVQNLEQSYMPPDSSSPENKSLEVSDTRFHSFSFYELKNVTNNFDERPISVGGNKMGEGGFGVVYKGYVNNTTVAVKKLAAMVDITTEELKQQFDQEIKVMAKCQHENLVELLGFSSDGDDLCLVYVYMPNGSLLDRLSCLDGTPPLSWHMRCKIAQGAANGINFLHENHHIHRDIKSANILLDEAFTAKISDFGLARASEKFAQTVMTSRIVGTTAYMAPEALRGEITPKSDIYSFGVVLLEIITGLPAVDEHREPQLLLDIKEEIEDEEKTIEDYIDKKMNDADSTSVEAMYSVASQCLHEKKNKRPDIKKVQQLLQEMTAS
How it was run: as §1

[4] = molecular target: protein kinases of the Z-LYTE panel (Homo sapiens, UniProt P10721)
How it was run: as §1

[5] = molecular target: protein kinases of the Z-LYTE panel (Homo sapiens, UniProt P16591)
How it was run: as §1

[6] = molecular target: protein kinases of the Z-LYTE panel (Homo sapiens, UniProt Q9P286)
How it was run: as §1

[7] = molecular target: T2, protein kinases of the Z-LYTE panel (Homo sapiens, UniProt O14757)
T2 sequence (O14757 1-476): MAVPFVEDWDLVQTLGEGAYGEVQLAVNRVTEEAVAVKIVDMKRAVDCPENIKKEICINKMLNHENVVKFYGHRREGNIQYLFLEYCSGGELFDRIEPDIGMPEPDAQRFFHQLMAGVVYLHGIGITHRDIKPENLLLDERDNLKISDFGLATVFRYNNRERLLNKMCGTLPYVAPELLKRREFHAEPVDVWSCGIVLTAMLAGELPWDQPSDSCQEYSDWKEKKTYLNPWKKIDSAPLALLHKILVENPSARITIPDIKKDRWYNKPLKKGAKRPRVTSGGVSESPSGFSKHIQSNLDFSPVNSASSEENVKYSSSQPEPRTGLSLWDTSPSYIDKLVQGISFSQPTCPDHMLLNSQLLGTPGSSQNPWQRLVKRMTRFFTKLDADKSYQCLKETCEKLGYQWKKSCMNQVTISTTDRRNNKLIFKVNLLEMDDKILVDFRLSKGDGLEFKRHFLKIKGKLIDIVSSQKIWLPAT
How it was run: as §1

[8] = molecular target: protein kinases of the Z-LYTE panel (Homo sapiens, UniProt P31751)
How it was run: as §1

[9] = molecular target: protein kinases of the Z-LYTE panel (Homo sapiens, UniProt P15056); conditions: BRAF, 1000 nM, [ATP] 100 μM
How it was run: as §1

[10] = molecular target: protein kinases of the Z-LYTE panel (Homo sapiens, UniProt Q04912)
How it was run: as §1

protein kinases of the Z-LYTE panel (Homo sapiens, UniProt Q9P286), sequence (Q9P286 whole entry): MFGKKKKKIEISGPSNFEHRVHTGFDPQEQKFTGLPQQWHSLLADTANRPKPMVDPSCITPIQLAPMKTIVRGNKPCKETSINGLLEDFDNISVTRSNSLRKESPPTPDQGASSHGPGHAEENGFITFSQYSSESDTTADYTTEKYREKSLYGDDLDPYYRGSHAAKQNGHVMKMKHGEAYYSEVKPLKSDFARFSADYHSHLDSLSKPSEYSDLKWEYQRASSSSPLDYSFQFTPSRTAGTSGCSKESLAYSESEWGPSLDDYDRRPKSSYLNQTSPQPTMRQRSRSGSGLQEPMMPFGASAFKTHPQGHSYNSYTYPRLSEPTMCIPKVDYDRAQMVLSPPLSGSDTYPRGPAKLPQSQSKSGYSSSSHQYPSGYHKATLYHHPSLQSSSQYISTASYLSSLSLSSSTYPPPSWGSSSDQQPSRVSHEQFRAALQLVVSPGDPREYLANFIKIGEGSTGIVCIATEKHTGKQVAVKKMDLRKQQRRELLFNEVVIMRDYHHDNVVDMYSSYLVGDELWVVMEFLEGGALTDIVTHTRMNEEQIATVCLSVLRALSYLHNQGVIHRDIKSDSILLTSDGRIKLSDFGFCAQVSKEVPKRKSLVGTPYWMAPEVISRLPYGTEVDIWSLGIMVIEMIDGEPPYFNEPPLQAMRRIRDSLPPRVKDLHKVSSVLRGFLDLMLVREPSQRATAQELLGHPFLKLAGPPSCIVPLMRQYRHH
protein kinases of the Z-LYTE panel (Homo sapiens, UniProt P10721), sequence (P10721 26-976): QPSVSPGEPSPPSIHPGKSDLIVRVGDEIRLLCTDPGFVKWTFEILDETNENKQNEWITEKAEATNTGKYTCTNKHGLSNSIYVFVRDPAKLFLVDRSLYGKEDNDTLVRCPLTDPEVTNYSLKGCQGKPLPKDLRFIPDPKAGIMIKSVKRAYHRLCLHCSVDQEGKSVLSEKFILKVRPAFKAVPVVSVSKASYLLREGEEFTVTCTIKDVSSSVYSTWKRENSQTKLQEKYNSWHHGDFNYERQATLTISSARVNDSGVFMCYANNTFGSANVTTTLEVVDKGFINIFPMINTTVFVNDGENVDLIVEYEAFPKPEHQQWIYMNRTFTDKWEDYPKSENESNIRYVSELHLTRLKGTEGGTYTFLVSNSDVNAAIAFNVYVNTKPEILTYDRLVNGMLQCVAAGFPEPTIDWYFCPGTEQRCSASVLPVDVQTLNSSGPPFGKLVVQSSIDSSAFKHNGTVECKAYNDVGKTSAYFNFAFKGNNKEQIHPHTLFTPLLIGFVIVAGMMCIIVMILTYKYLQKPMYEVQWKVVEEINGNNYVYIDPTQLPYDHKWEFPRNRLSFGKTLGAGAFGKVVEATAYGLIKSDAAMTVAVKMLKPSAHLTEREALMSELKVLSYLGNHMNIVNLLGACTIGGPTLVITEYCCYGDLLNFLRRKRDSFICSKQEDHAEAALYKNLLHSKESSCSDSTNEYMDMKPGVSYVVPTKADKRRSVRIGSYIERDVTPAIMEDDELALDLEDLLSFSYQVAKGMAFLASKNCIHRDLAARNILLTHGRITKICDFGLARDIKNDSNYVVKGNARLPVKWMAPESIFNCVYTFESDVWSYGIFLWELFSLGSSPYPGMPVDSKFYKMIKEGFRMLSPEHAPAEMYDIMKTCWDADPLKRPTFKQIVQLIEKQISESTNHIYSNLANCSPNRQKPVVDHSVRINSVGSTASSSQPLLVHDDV
protein kinases of the Z-LYTE panel (Homo sapiens, UniProt P15056), sequence (P15056 whole entry): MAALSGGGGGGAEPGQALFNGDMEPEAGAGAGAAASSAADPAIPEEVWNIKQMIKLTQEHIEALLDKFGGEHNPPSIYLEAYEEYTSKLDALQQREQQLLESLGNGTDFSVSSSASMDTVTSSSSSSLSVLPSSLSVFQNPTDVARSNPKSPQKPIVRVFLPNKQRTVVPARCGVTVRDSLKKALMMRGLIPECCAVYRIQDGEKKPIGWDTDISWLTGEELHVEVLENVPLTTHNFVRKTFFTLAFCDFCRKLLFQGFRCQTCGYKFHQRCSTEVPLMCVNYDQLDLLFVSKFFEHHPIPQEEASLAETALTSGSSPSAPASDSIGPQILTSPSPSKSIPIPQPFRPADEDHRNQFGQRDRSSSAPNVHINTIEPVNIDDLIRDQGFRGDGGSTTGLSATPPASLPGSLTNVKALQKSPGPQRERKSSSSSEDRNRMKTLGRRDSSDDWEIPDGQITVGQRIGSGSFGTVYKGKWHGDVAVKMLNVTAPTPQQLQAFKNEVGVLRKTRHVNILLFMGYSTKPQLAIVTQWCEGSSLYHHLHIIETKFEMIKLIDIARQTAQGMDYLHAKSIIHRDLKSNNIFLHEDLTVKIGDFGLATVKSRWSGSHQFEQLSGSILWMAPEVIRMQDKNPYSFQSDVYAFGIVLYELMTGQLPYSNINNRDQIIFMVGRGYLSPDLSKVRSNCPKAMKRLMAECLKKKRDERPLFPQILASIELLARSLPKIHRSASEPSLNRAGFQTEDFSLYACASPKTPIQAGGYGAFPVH
protein kinases of the Z-LYTE panel (Homo sapiens, UniProt P31751), sequence (P31751 whole entry): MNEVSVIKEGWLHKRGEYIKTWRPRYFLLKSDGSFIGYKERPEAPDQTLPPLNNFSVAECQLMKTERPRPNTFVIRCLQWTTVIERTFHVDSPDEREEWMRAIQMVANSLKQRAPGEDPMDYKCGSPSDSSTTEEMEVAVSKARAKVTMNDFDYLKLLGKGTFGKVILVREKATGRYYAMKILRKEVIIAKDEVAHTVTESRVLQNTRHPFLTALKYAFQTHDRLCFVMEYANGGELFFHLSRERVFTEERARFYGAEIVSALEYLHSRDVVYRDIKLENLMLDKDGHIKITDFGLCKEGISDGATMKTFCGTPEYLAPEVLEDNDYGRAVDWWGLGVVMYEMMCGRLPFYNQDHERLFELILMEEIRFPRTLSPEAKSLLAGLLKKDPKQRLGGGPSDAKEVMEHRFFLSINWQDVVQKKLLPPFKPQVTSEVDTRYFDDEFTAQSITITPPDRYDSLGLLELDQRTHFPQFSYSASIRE
protein kinases of the Z-LYTE panel (Homo sapiens, UniProt Q04912), sequence (Q04912 25-1400): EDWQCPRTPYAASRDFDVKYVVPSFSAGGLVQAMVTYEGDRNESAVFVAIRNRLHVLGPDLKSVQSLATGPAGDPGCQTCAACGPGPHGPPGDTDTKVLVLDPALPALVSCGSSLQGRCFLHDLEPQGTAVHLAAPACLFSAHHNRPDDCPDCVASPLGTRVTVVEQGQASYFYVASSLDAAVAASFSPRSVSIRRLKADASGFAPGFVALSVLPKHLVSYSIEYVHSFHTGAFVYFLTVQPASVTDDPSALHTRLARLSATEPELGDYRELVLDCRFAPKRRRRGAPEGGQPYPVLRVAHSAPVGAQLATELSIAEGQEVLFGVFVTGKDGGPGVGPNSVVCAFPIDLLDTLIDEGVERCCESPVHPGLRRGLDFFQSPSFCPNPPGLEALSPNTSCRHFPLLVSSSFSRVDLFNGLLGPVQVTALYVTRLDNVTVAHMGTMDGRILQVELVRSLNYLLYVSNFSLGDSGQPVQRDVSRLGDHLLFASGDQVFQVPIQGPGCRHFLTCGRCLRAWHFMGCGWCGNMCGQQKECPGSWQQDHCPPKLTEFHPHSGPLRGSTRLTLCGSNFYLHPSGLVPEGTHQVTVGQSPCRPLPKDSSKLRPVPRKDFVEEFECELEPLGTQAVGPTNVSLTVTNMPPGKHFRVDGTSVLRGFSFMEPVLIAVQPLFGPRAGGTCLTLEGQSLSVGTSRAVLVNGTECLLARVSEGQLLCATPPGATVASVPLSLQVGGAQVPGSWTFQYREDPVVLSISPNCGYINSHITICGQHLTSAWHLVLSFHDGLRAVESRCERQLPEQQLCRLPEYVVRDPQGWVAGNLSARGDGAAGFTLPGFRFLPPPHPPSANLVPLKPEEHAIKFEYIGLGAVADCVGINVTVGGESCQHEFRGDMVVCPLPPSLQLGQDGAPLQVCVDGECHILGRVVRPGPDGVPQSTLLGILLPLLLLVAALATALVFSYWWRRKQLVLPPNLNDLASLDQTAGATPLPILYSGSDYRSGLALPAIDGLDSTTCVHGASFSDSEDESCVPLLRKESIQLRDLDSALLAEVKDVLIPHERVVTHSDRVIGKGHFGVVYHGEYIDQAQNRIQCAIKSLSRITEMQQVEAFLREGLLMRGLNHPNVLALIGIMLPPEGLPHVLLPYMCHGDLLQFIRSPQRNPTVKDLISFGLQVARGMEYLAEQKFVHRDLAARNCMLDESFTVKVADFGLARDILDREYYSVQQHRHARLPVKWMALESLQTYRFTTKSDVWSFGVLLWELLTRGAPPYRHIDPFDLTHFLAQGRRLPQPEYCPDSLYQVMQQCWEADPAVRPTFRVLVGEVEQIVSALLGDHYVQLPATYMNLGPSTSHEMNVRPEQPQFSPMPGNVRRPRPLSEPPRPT
protein kinases of the Z-LYTE panel (Homo sapiens, UniProt P31749), sequence (P31749 whole entry): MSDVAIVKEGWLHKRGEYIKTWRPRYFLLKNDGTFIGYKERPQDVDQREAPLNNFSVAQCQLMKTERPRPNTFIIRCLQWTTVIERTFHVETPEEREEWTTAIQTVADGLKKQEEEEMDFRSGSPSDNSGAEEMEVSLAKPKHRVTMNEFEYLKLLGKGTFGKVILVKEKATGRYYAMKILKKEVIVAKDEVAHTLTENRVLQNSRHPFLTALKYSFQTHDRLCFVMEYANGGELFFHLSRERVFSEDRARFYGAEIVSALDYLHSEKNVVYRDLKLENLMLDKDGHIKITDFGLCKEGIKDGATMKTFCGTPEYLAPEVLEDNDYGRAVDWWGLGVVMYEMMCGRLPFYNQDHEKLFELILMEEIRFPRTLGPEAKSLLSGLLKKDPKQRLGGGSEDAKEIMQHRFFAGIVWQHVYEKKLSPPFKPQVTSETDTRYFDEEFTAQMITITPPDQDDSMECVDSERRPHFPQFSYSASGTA

## CCN1CCN(c2ccc(Nc3cc(Nc4cccc5c4N(C(C)=O)CC5)ccn3)cc2)CC1 [Compound 1938]
[1]; read-out: % Inhibition Point 1
  inhibition at 1 µM: 3%
[1]; read-out: % Inhibition Point 2
  inhibition at 1 µM: 5%
[1]; read-out: % Inhibition mean
  inhibition at 1 µM: 4%
[2]; read-out: % Inhibition Point 1
  inhibition at 1 µM: 4.32%
[2]; read-out: % Inhibition Point 2
  inhibition at 1 µM: 3.3%
[2]; read-out: % Inhibition mean
  inhibition at 1 µM: 4%
[3]; read-out: % Inhibition Point 1
  inhibition at 1 µM: -0.0182%
[3]; read-out: % Inhibition Point 2
  inhibition at 1 µM: -2.21%
[3]; read-out: % Inhibition mean
  inhibition at 1 µM: -1.11%
[4]; read-out: % Inhibition Point 1
  inhibition at 1 µM: 6.43%
[4]; read-out: % Inhibition Point 2
  inhibition at 1 µM: 8%
[4]; read-out: % Inhibition mean
  inhibition at 1 µM: 7%
[5]; read-out: % Inhibition Point 1
  inhibition at 1 µM: -5.31%
[5]; read-out: % Inhibition Point 2
  inhibition at 1 µM: -2.44%
[5]; read-out: % Inhibition mean
  inhibition at 1 µM: -4%
[6]; read-out: % Inhibition Point 1
  inhibition at 1 µM: 0.526%
[6]; read-out: % Inhibition Point 2
  inhibition at 1 µM: 3.33%
[6]; read-out: % Inhibition mean
  inhibition at 1 µM: 2%
[7]; read-out: % Inhibition Point 1
  inhibition at 1 µM: 2%
[7]; read-out: % Inhibition Point 2
  inhibition at 1 µM: -3.79%
[7]; read-out: % Inhibition mean
  inhibition at 1 µM: -0.889%
[8]; read-out: % Inhibition Point 1
  inhibition at 1 µM: 0.378%
[8]; read-out: % Inhibition Point 2
  inhibition at 1 µM: 0.753%
[8]; read-out: % Inhibition mean
  inhibition at 1 µM: 0.565%
[9]; read-out: % Inhibition Point 1
  inhibition at 1 µM: 13%
[9]; read-out: % Inhibition Point 2
  inhibition at 1 µM: 12%
[9]; read-out: % Inhibition mean
  inhibition at 1 µM: 13%
[10]; read-out: % Inhibition Point 1
  inhibition at 1 µM: 8%
[10]; read-out: % Inhibition Point 2
  inhibition at 1 µM: 8.5%
[10]; read-out: % Inhibition mean
  inhibition at 1 µM: 8%
